Experimental data as given in patent publication US4550186A, “Binuclear copper (II) carboxylates formed from amine-carboxyboranes” (Duke University, priority 1983, dated 1985).
Read-outs that look alike come from different tables or passages of the source.

Key:
[1] = biological target: deoxyribonucleic acid polymerase; experiment: In vitro deoxyribonucleic acid polymerase activity in isolated nuclei; type: biochemical, mouse; settings: isolated nuclei from Ehrlich ascites cells, read-out: ID50, Deoxyribonucleic acid polymerase activity
Description: (§1) CF1 male mice (~30 g) were implanted with 2×10^6 Ehrlich ascites tumor cells, intraperitoneally on Day 0. Compound I was suspended by homogenation in 0.05% polysorbate.80-water and administered intraperitoneally at 10 and 20 mg/kg for 9 days to determine its effectiveness for inhibition of tumor growth. Mice were sacrificed on Day 10, and the ascites fluid was collected from the peritoneal cavity. The volume and ascrit (packed cell volume) were determined for each animal and the percent inhibition of tumor growth was calculated. For the metabolic studies, mice were treated on Days 8 and 9 with 10 mg/kg of Compound I, intraperitoneally. The animal was sacrificed on Day 10 and the ascites fluid harvested. The in vitro metabolic studies were performed at 0.25, 0.50 and 1 mmol final concentration of Compound I.
(§2) In vitro and in vivo nuclear deoxyribonucleic acid polymerase activity was determined on isolated Ehrlich ascites cell nuclei. The incubation was that described by Sawada et al [Can. Res., 34, 3341 (1974)] except that [methyl-^3 H] deoxythymidine triphosphate (82.4 Ci/mmol) was used. The acid insoluble nucleic acid was collected on GF/F filters and counted. Nuclear ribonucleic acid polymerase activities were determined on enzymes isolated from nuclei. […] The acid insoluble ribonucleic acid was collected on nitrocellulose filters and counted.

[2] = biological target: T1, messenger ribonucleic acid polymerase (Mus musculus, UniProt P08775+Q8CFI7); experiment: In vivo messenger ribonucleic acid polymerase activity
T1 construct: enzymes isolated from nuclei; endogenous in cells; host or cells: Ehrlich ascites tumor cell nuclei, ammonium sulfate fraction
Description: as §1, §2

[3] = system: protein synthesis of Ehrlich ascites cells; experiment: In vivo leucine incorporation into protein; set-up: species or system mouse
Description: as §1, with “The in vitro metabolic studies were performed at 0.25, 0.50 and 1 mmol final concentration of Compound I.” left out
For in vivo studies, incorporation of thymidine into deoxyribonucleic acid was determined by the method of Chae et al [Proc. Am. […] The deoxyribonucleic acid was isolated and the tritium content was determined in a toluene based scintillation fluid. The deoxyribonucleic acid concentration was determined by the diphenylamine reaction using calf thymus deoxyribonucleic acid as a standard. Uridine incorporation into ribonucleic acid was determined using 10 μCi of 5,6-^3 H-uridine (22.4 Ci/mmol). […] Leucine incorporation into protein was determined by the method of Sartorelli [Biochem. Biophys. […] Protein content was determined by the Lowry procedure using bovine serum albumin as a standard.

[4] = 10 mg/kg/day I.P. on Days 8 and 9

{Cu[(CH3)3 N.BH2 CO2 ]2.(CH3)3 N.BH2 COOH} [Compound I]
IC50 [1]: 454 µM
Messenger ribonucleic acid polymerase activity [2]: not affected
Messenger ribonucleic acid polymerase activity [2, 4]: 96 ± 9 % Control
3H-Leucine incorporation into protein [3, 4]: 48 ± 6 % Control
Leucine incorporation into protein inhibited ([3]; 10 day Ehrlich ascites cells): 52%
